Assay results published in PubChem BioAssay AID1963837 (Molecular Pharmacology Branch, DTP, NCI, 2024).

test system: 843126-344-R-J1-PDC complex spheroid viability; experiment: Anticancer human tumor 843126-344-R-J1-PDC patient-derived melanoma cell line growth inhibition [POLQ]; settings: second compound 0.0316 µM; first compound 3.16 µM; active compounds read low
Protocol: Multicellular complex tumor spheroid response to Polymerase (POL) inhibitors (novobiocin, ART-558, RP6685) in combination with a variety of drugs and investigational agents in selected tumor cell lines
The POL inhibitors (novobiocin, ART-558, and RP6685) were evaluated both individually and in combination with standard of care and investigational anticancer small molecules within a complex spheroid model of solid tumors. . Complex spheroids include a stromal component modeled by human endothelial cells (HUVEC) and fibroblasts modeled by human mesenchymal stem cells (MSCs). The concentration ranges selected for each drug and investigational agent were based upon clinically achievable concentrations if the clinical Cmax of the agent was known.
Compounds. The drugs and investigational agents: novobiocin (NSC847541), ART-558 (NSC835418), RP-6685 (NSC848927), peposertib (NSC802822), ceralasertib (NSC780249), elimusertib (NSC800525), camonsertib (NSC841442), AZD-1390 (NSC803789), olaparib (NSC753686), talazoparib (NSC767125), rucaparib (NSC756644), sotorasib (NSC818433), MRTX-1133 (NSC836407), SN-38 (NSC673596), topotecan (NSC609699), epotoside (NSC141540), doxorubicin (NSC123127), gemcitabine (NSC613327), 5-fluorouracil (NSC19893), paclitaxel (NSC125973), vemurafenib (NSC761431), MSA-2 (NSC828583), SN-011 (NSC837082), adavosertib (NSC754352), prexasertib (NSC758257), carboplatin (NSC241240) and oxaliplatin (NSC266046), were obtained from the National Cancer Institute (NCI) Developmental Therapeutics Program Chemical Repository (21). The FDA-approved anticancer drug set is available from the Developmental Therapeutics Program at https://dtp.cancer.gov/organization/dscb/obtaining/. […] The stock solutions were prepared in dimethyl sulfoxide (DMSO, Sigma-Aldrich, St. Louis, MO, cat. D2650), except for the platinum compounds which were prepared in saline (Quality Biological, Gaithersburg, MD, cat. 114-055-101), at 800-fold the tested concentration and stored at -70 degrees C prior to their use. All drugs and investigational agents were tested over a range starting from a high concentration at or near the clinical Cmax and decreasing in half-log increments. If the clinical Cmax for an agent had not been determined, the highest concentration tested was 10 microM, except for SN-38, which was tested at a high concentration of 1 microM.
Cell Culture. All cells were maintained in an incubator at 37 degrees C and 5% CO2 with 95% humidity. The PDC lines were cultured according to standard operating procedures established by the NCI PDMR (https://pdmr.cancer.gov). Table 3 of the manuscript, lists the cell lines along with the number of the three cell types plated to form the mct-spheroids and media for tumor cell growth. After thawing, all PDC lines, except 997537-175-T-J1-PDC and 415267-285-R-J2-PDC, were cultured in Matrigel-coated flasks prepared with a working solution of 1X Ham's F-12 nutrient mix, without supplementation (Thermo Fisher Scientific, cat. 11765054), 100 U/mL penicillin-streptomycin (Thermo Fisher Scientific, cat. 15140122), and 2.5% Matrigel (Corning Inc., Corning, NY, cat. 354248) for the first three passages. The two PDC lines 997537-175-T-J1-PDC and 415267-285-R-J2-PDC were cultured on uncoated flasks. The 857933-349-R-J2-PDC line was cultured in 6C/Colon 1B media containing advanced DMEM/F-12 (Thermo Fisher Scientific, cat. 12634028), 10 mM HEPES (Thermo Fisher Scientific, cat. 15630080), 1X GlutaMAX supplement (Thermo Fisher Scientific, cat. 35050061), 0.1 mg/mL primocin (InvivoGen, San Diego, CA, cat. ant-pm-2), 10% defined fetal bovine serum, heat inactivated (HyClone Laboratories Inc., Logan, UT, cat. SH30070.03HI), 50% L-WRN conditioned media (ATCC, cat. CRL-3276), 1.25 mM N-Acetyl-L-cysteine (Sigma-Aldrich, cat. A9165), 10 mM nicotinamide (Sigma-Aldrich, cat. N0636), 1X B-27 supplement (Thermo Fisher Scientific, cat. 17504044), 1X N-2 supplement (Thermo Fisher Scientific, cat. […]
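Note: spheroids exposed to drugs for seven days before readout.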

Compared with CC1COCCN1c1cc(-c2ccnn2C)c2ccnc(-c3ccn[nH]3)c2n1 (stereo unspecified) + Cc1cccc(N(C)C(=O)C2C(O)CCN2c2nc(C)cc(C(F)(F)F)c2C#N)c1, CC1COCCN1c1cc(C2(S(C)(=N)=O)CC2)nc(-c2ccnc3[nH]ccc23)n1 (stereo unspecified) + Cc1cccc(N(C)C(=O)C2C(O)CCN2c2nc(C)cc(C(F)(F)F)c2C#N)c1 is higher in viability, T/C: 50.3% for the first, 76.2% for the second.

CC1COCCN1c1cc(C2(O)CC3CCC(C2)O3)c2cnn(-c3ccn[nH]3)c2n1 (stereo unspecified) + Cc1cccc(N(C)C(=O)C2C(O)CCN2c2nc(C)cc(C(F)(F)F)c2C#N)c1 showed a viability, T/C of 31%.

same assay, conditions: second compound 0.0316 µM; first compound 10 µM; active compounds read low

Compared with CC1COCCN1c1cc(-c2ccnn2C)c2ccnc(-c3ccn[nH]3)c2n1 (stereo unspecified) + Cc1cccc(N(C)C(=O)C2C(O)CCN2c2nc(C)cc(C(F)(F)F)c2C#N)c1, CC1COCCN1c1cc(C2(S(C)(=N)=O)CC2)nc(-c2ccnc3[nH]ccc23)n1 (stereo unspecified) + Cc1cccc(N(C)C(=O)C2C(O)CCN2c2nc(C)cc(C(F)(F)F)c2C#N)c1 is higher in viability, T/C: 32.7% for the first, 51.1% for the second.

CC1COCCN1c1cc(C2(O)CC3CCC(C2)O3)c2cnn(-c3ccn[nH]3)c2n1 (stereo unspecified) + Cc1cccc(N(C)C(=O)C2C(O)CCN2c2nc(C)cc(C(F)(F)F)c2C#N)c1 gave a viability, T/C of 20.7%.

same assay, conditions: second compound 0.1 µM; first compound 0.00316 µM; active compounds read low

In the case of COc1cccc(OCCCN)c1-c1cc(Nc2cnc(C#N)cn2)n[nH]1 + Cc1cccc(N(C)C(=O)C2C(O)CCN2c2nc(C)cc(C(F)(F)F)c2C#N)c1, the viability, T/C was 102%.

same assay, conditions: second compound 0.1 µM; first compound 0.01 µM; active compounds read low

COc1cccc(OCCCN)c1-c1cc(Nc2cnc(C#N)cn2)n[nH]1 + Cc1cccc(N(C)C(=O)C2C(O)CCN2c2nc(C)cc(C(F)(F)F)c2C#N)c1 gave a viability, T/C of 71.6%.

same assay, conditions: second compound 0.1 µM; first compound 0.0316 µM; active compounds read low

Compared with CC1COCCN1c1cc(-c2ccnn2C)c2ccnc(-c3ccn[nH]3)c2n1 (stereo unspecified) + Cc1cccc(N(C)C(=O)C2C(O)CCN2c2nc(C)cc(C(F)(F)F)c2C#N)c1, CC1COCCN1c1cc(C2(S(C)(=N)=O)CC2)nc(-c2ccnc3[nH]ccc23)n1 (stereo unspecified) + Cc1cccc(N(C)C(=O)C2C(O)CCN2c2nc(C)cc(C(F)(F)F)c2C#N)c1 is higher in viability, T/C: 80.9% for the first, 91.3% for the second.

Compared with CC1COCCN1c1cc(C2(O)CC3CCC(C2)O3)c2cnn(-c3ccn[nH]3)c2n1 (stereo unspecified) + Cc1cccc(N(C)C(=O)C2C(O)CCN2c2nc(C)cc(C(F)(F)F)c2C#N)c1, COc1cccc(OCCCN)c1-c1cc(Nc2cnc(C#N)cn2)n[nH]1 + Cc1cccc(N(C)C(=O)C2C(O)CCN2c2nc(C)cc(C(F)(F)F)c2C#N)c1 is lower in viability, T/C: 84.6% for the first, 61.1% for the second.

same assay, conditions: second compound 0.1 µM; first compound 0.1 µM; active compounds read low

First: CC1COCCN1c1cc(-c2ccnn2C)c2ccnc(-c3ccn[nH]3)c2n1 (stereo unspecified) + Cc1cccc(N(C)C(=O)C2C(O)CCN2c2nc(C)cc(C(F)(F)F)c2C#N)c1
Second: CC1COCCN1c1cc(C2(S(C)(=N)=O)CC2)nc(-c2ccnc3[nH]ccc23)n1 (stereo unspecified) + Cc1cccc(N(C)C(=O)C2C(O)CCN2c2nc(C)cc(C(F)(F)F)c2C#N)c1
The viability, T/C of the first is lower: 67.5% for the first, 87.6% for the second.

First: CC1COCCN1c1cc(C2(O)CC3CCC(C2)O3)c2cnn(-c3ccn[nH]3)c2n1 (stereo unspecified) + Cc1cccc(N(C)C(=O)C2C(O)CCN2c2nc(C)cc(C(F)(F)F)c2C#N)c1
Second: COc1cccc(OCCCN)c1-c1cc(Nc2cnc(C#N)cn2)n[nH]1 + Cc1cccc(N(C)C(=O)C2C(O)CCN2c2nc(C)cc(C(F)(F)F)c2C#N)c1
The viability, T/C of the first is higher: 66% for the first, 48% for the second.

same assay, conditions: second compound 0.1 µM; first compound 0.316 µM; active compounds read low

First: CC1COCCN1c1cc(-c2ccnn2C)c2ccnc(-c3ccn[nH]3)c2n1 (stereo unspecified) + Cc1cccc(N(C)C(=O)C2C(O)CCN2c2nc(C)cc(C(F)(F)F)c2C#N)c1
Second: CC1COCCN1c1cc(C2(S(C)(=N)=O)CC2)nc(-c2ccnc3[nH]ccc23)n1 (stereo unspecified) + Cc1cccc(N(C)C(=O)C2C(O)CCN2c2nc(C)cc(C(F)(F)F)c2C#N)c1
The viability, T/C of the first is lower: 64.2% for the first, 97.2% for the second.

Going from CC1COCCN1c1cc(C2(O)CC3CCC(C2)O3)c2cnn(-c3ccn[nH]3)c2n1 (stereo unspecified) + Cc1cccc(N(C)C(=O)C2C(O)CCN2c2nc(C)cc(C(F)(F)F)c2C#N)c1 to COc1cccc(OCCCN)c1-c1cc(Nc2cnc(C#N)cn2)n[nH]1 + Cc1cccc(N(C)C(=O)C2C(O)CCN2c2nc(C)cc(C(F)(F)F)c2C#N)c1, the viability, T/C falls from 58.5% to 42.6%.

same assay, conditions: second compound 0.1 µM; first compound 1 µM; active compounds read low

CC1COCCN1c1cc(-c2ccnn2C)c2ccnc(-c3ccn[nH]3)c2n1 (stereo unspecified) + Cc1cccc(N(C)C(=O)C2C(O)CCN2c2nc(C)cc(C(F)(F)F)c2C#N)c1 showed a viability, T/C of 52.6%.
